According to patent US11952351B2, “Lipid particle, composition comprising lipid particle, and method for delivering activators to cell” (KABUSHIKI KAISHA TOSHIBA, priority 2018, dated 2024):

Key:
[1] = system: Jurkat, MCF-7 and Huh-7 cells; assay: vector DNA introduced by liposomes of Table 7, NLuc enzyme activity; format: cell-based, human; conditions: MCF-7, Huh-7, Jurkat; 48 hours, FIGS. 7 to 11
Description: The amount of vector DNA introduced to cells by the liposomes was quantified on the basis of expression of NLuc genes on vector DNA. For evaluating the expression of NLuc, emission thereof was measured with a microtiter plate reader (infinite F200 [trademark], manufactured by Tecan). As the cells, human T-cell leukemia cell lines Jurkat, human breast cancer cell lines MCF-7 and human liver cancer cell lines Huh-7 (purchased from American Type Culture Collection) were adopted. After 100 μL of the cell suspension (1×10^6 cells/mL) was inoculated on a 96-well plate, 1 μL of each liposome solution shown in Table 7 was added. Thereafter, the cells were incubated in an incubator at 37° C. for 48 hours under an atmosphere of 5% CO2, and then enzyme activity of NLuc was measured. The measurement of NLuc enzyme activity was carried out by use of NanoGlo Luciferase Assay System ([trademark], manufactured by Promega Corporation) with a luminometer according to the manual attached to the kit. FIGS. 7 to 9 show graphs in which Examples 4-1 and 4-2 are compared. […] FIGS. 10 and 11 show graphs in which Examples 4-2 and 4-3 are compared.

[2] = system: human peripheral blood mononuclear cells PBMCs; assay: vector DNA introduced by liposomes of Table 3, NLuc enzyme activity, PBMC; format: cell-based; conditions: set of compound (2-01) and DOPE; 0.8 μg DNA/well, 48 hours, FIG. 5
Description: (§1) The amount of vector DNA introduced to cells by the liposomes was quantified on the basis of expression of NLuc genes on vector DNA. For evaluating the expression of NLuc, emission thereof was measured with a microtiter plate reader (infinite F200 [trademark], manufactured by Tecan). As the cells, human T-cell leukemia cell lines Jurkat (purchased from American Type Culture Collection) and human peripheral blood mononuclear cells PBMCs (purchased from LONZA Japan) were adopted. After 100 μL of the Jurkat cell suspension (1×10^6 cells/mL) and 100 μL of the PBMC cell suspension (5×10^6 cells/mL) were individually inoculated on a 96-well plate, 1 μL of each liposome solution shown in Table 1 was added so that the DNA amount might be 0.8 μg/well. Thereafter, the cells were incubated in an incubator at 37° C. for 48 hours under an atmosphere of 5% CO2, and then enzyme activity of NLuc was measured. The measurement of NLuc enzyme activity was carried out by use of NanoGlo Luciferase Assay System ([trademark], manufactured by Promega Corporation) with a luminometer according to the manual attached to the kit. The results are shown in FIG. 4 (Jurkat) and FIG. 5 (PBMC).

[3] = system: human T-cell leukemia cell lines Jurkat; assay: vector DNA introduced by liposomes of Table 3, NLuc enzyme activity, Jurkat; format: cell-based; conditions: DOTAP as lipid forming a membrane; 0.8 μg DNA/well, 48 hours, FIG. 4
Description: as §1

CC1=C(/C=C/C(C)=C/C=C/C(C)=C/C(=O)OCCCN(C)CCOCCOCCN(C)CCCOC(=O)/C=C(C)/C=C/C=C(C)/C=C/C2=C(C)CCCC2(C)C)C(C)(C)CCC1 [compound (2-01)] was tested, and the “expression efficiencies of NLuc genes (comparison in words)” value [1] was “more easily introduced into adherent cells than into floating cells”.
With CCCCCC/C=C/COC(=O)CCCCCCCC(CCCCCCCC(=O)OC/C=C/CCCCCC)CN(C)CCN(C)C [compound (1-01)] the “efficiency of NLuc gene expression in PBMC cells” value [2] was “higher efficiency of NLuc gene expression in PBMC cells than the compound of the formula (1-02)”.
With CCCCCC/C=C/COC(=O)CCCCCCCC(CCCCCCCC(=O)OC/C=C/CCCCCC)CCCCN1CCN(C)CC1 [compound (1-02)] the “efficiency of NLuc gene expression in Jurkat cells” value [3] was “higher efficiency of NLuc gene expression in Jurkat cells than the compound of the formula (1-01)”.
